# Key:
# mice [1] = test: Acute toxicity LD50, oral (p.o.), mice; conditions: oral dose 2,000 mg/kg
# [2] = test system: Salmonella typhimurium DT104; test: Comparative in vitro examination of selected pathogens, zone diameter; format: cell-based; conditions: (Müller)Hinton-Agar; amount used: The novel compound 0.05 mL; Cephalosporin 0.1 mL; Ampicillin 0.2 mL
# E. coli = test: as above; format: cell-based; conditions: (Müller)Hinton-Agar; amount used: The novel compound 0.05 mL; Cephalosporin 0.1 mL; Ampicillin 0.2 mL
# Streptococcus uberis = test: as above; format: cell-based; conditions: (Müller)Hinton-Agar; amount used: The novel compound 0.05 mL; Cephalosporin 0.1 mL; Ampicillin 0.2 mL
# bacteria = test: In vitro studies of bactericide effect; format: cell-based; conditions: compared with Thymol and Carvacrol
# Source text: Their physiological activity is well known. […] The phenol groups of both Thymol and Carvacrol are very aggressive to pathogens: bacteria, fungi etc. These groups are needed for bioactivity of our product. What has been done was making the phenol group less reactive by reacting them with carboxylic and amino group of glycine. The product should be administered p.o. (per os). The novelty idea was to hydrolyze a part of the new molecule in the stomach by hydrochloric acid. Carvacrol and an ester of Glycine and Thymol will be slowly hydrolyzed into Thymol and Glycine. […] The subject of this invention is to produce a potent entero-antiseptic for the treatment gastrointestinal infections in humans.
# rats [3] = test: Acute toxicity LD50, parenteral - intraperitoneal (i.p.), rats; conditions: i.p. dose 2,500 mg/kg
# Vibrio = test: Comparative in vitro examination of selected pathogens, zone diameter; format: cell-based; conditions: (Müller)Hinton-Agar; amount used: The novel compound 0.05 mL; Cephalosporin 0.1 mL; Ampicillin 0.2 mL
# mice [4] = test: Acute toxicity LD50, parenteral - intraperitoneal (i.p.), mice; conditions: mouse, in vivo
# Shigella = test: Comparative in vitro examination of selected pathogens, zone diameter; format: cell-based; conditions: (Müller)Hinton-Agar; amount used: The novel compound 0.05 mL; Cephalosporin 0.1 mL; Ampicillin 0.2 mL
# Escherichia coli 0157H5 = test: as above; format: cell-based; conditions: (Müller)Hinton-Agar; amount used: The novel compound 0.05 mL; Cephalosporin 0.1 mL; Ampicillin 0.2 mL
# [5] = test system: mammalian cells, mitotic division; test: Pilot test of effect on mitotic cell division; format: cell-based; conditions: the compound in tablet form
# Source text: In the pilot test at the same Institute, the effect of the compound on the mammalian cells, mitotic division has also been tested. It has been investigated if the compound in tablet form will have any negative - suppressive effect on the mitotic cells division. […] It is a positive sign that the compound in tablet form might be used for on pregnant mammals, without danger of the teratogenic effect on the fetus in the wombs, by the pregnant mammals.
# Streptococcus pyogenes = test: Comparative in vitro examination of selected pathogens, zone diameter; format: cell-based; conditions: (Müller)Hinton-Agar; amount used: The novel compound 0.05 mL; Cephalosporin 0.1 mL; Ampicillin 0.2 mL
# Staphylococcus aureus = test: as above; format: cell-based; conditions: (Müller)Hinton-Agar; amount used: The novel compound 0.05 mL; Cephalosporin 0.1 mL; Ampicillin 0.2 mL
# Yersinia = format: cell-based; conditions: (Müller)Hinton-Agar; amount used: The novel compound 0.05 mL; Cephalosporin 0.1 mL; Ampicillin 0.2 mL
# rats [6] = test: Acute toxicity LD50, oral (p.o.), rats; conditions: oral dose 2,500 mg/kg
# Listeria monocytogenes = test: Comparative in vitro examination of selected pathogens, zone diameter; format: cell-based; conditions: (Müller)Hinton-Agar; amount used: The novel compound 0.05 mL; Cephalosporin 0.1 mL; Ampicillin 0.2 mL
# Listeria = test: as above; format: cell-based; conditions: (Müller)Hinton-Agar; amount used: The novel compound 0.05 mL; Cephalosporin 0.1 mL; Ampicillin 0.2 mL
# [7] = test system: Salmonella strain which requires histidine; test: Ames test (mutagenic and carcinogenic effect); format: cell-based
# Source text: (The subject of the testing was to determine the mutagenic and carcinogenic effect of the compound in tablet form). The test has been done by the Ames test. This test which is a widely and often used method that use pathogens in most cases bacteria's in order to test whether a given chemical, compound and/or medicine can cause any damage to the DNA of the test organism. This method is fast to conduct and easy to follow to check mutagenic or carcinogenic effect of the tested compound. In the lab dish with a the specially selected Salmonella strain which requires histidine, was added to a rat liver extract. The test has been done using the control-experimental method. In the dish volume of the 20 mL of liquid considered to be a control one, had no the compound in it. Into the dish we consider to be experimental one with also a volume of 20 mL, we added 2 mL of the compound, partly diluted into a glucose injectable solution. The mutagenic test results were negative in both lab dishes - control and experimental plates. The results were identical with no signs of the mutations.
# Salmonella = test: Comparative in vitro examination of selected pathogens, zone diameter; format: cell-based; conditions: (Müller)Hinton-Agar; amount used: The novel compound 0.05 mL; Cephalosporin 0.1 mL; Ampicillin 0.2 mL
# Streptococcus pneumonia = test: as above; format: cell-based; conditions: (Müller)Hinton-Agar; amount used: The novel compound 0.05 mL; Cephalosporin 0.1 mL; Ampicillin 0.2 mL
# humans = test: Clinical pilot study for side effects of the compound tablets; format: in vivo; conditions: 60 humans; 250 mg / 30 kg of the body weight every 12 hours for seven (7) days
# Method: The reason for this testing was to check if the compound tablets, after a longer period of use, can cause any eventual side effects.
# The test results were generated and monitored to obtain the relevant information and facts. In this study, the general monitored parameters were pulse, breathing, ECG (Electrocardiography), any discomfort, adverse events and/or allergy monitoring. These parameters were measured before the treatment with the compound and 15 minutes after its intake. The compound was ingested on the therapeutic days in each patient at 8.00 AM and 8.00 PM CET (paragraph [0026] and paragraph [0027]). After The compound had been consumed, the physician made observations for 30 min. Feeling of the patients during and after the intake of the compound will also be recorded for each participant.
# As part of the biochemical analysis of patients' blood, the blood sample of each patient was checked for biochemical parameters. Blood samples were taken from each patient before the beginning of the test, on the 4th day from the tests beginning, and on the 8th day form the tests beginning. The last blood samples have to be checked 12 hours from the last intake of the compound. The biochemical parameters that were measured in blood samples include: • 1. Liver status • 2. C Reactive protein • 3. Kidney Status
# The dose was: 250 mg of the compound / 30 kg of the body weight every 12 hours for seven (7) days (paragraph [0026] and paragraph [0027]).
# The clinical study started on November 5th, 2019, and was completed on November 29th, 2019.
# Campylobacter = test: Comparative in vitro examination of selected pathogens, zone diameter; format: cell-based; conditions: (Müller)Hinton-Agar; amount used: The novel compound 0.05 mL; Cephalosporin 0.1 mL; Ampicillin 0.2 mL
# [8] = phenol group of Carvacrol; cited from earlier work
# rats [9] = conditions: oral (p.o.), Carvacrol 99,5% concentration, reference value; cited from earlier work
compound,measurement,setting,value
2-(2-isopropyl-5-methylphenoxy)-2-oxoethan-1-aminium 2-isopropyl-5-methylphenolate [The novel compound],mice out of a hundred (100) that changed their behavior and demonstrated light discomfort,mice [1],21
same,R (evaluation of the results by zone diameter),[2],E S
same,zone diameter,[2],30 mm
same,R (evaluation of the results by zone diameter),E. coli,E S
same,zone diameter,E. coli,32 mm
same,R (evaluation of the results by zone diameter),Streptococcus uberis,E S
same,zone diameter,Streptococcus uberis,37 mm
same,bactericide effect,bacteria,more effective and faster bactericide effect than existing Thymol and Carvacrol
same,rats out of a hundred (100) that changed their behavior and demonstrated discomfort,rats [3],35
same,R (evaluation of the results by zone diameter),Vibrio,E S
same,zone diameter,Vibrio,33 mm
same,mice out of a hundred (100) that changed their behavior and demonstrated discomfort,mice [4],27
same,time after which discomfort symptoms disappeared,mice [4],3 to 5 min
same,R (evaluation of the results by zone diameter),Shigella,E S
same,zone diameter,Shigella,31 mm
same,R (evaluation of the results by zone diameter),Escherichia coli 0157H5,E S
same,zone diameter,Escherichia coli 0157H5,29 mm
same,negative - suppressive effect on the mitotic cells division,[5],no negative effects
same,R (evaluation of the results by zone diameter),Streptococcus pyogenes,E S
same,zone diameter,Streptococcus pyogenes,34 mm
same,R (evaluation of the results by zone diameter),Staphylococcus aureus,E S
same,zone diameter,Staphylococcus aureus,32 mm
same,R (evaluation of the results by zone diameter),Yersinia,E S
same,zone diameter,Yersinia,30 mm
same,rats out of a hundred (100) that changed their behavior and demonstrated light discomfort,rats [6],37
same,R (evaluation of the results by zone diameter),Listeria monocytogenes,E S
same,zone diameter,Listeria monocytogenes,38 mm
same,R (evaluation of the results by zone diameter),Listeria,E S
same,zone diameter,Listeria,32 mm
same,mutagenic test results,"[7]; Ames test, rat liver extract, 2 mL of the compound, partly diluted into a glucose injectable solution, in 20 mL dish, preliminary result",negative
same,carcinogenic effect,"[7]; suggested from the negative Ames test result, the compound in tablet form",no carcinogenic effect
same,R (evaluation of the results by zone diameter),Salmonella,E S
same,zone diameter,Salmonella,34 mm
same,R (evaluation of the results by zone diameter),Streptococcus pneumonia,E S
same,zone diameter,Streptococcus pneumonia,36 mm
same,C Reactive Protein (CRP) measurements,humans,no inflammation was developed
same,Electrocardiography measurements,humans,regular without any pathological and irregular oscillations
same,kidney functions (urine and blood parameters),humans,No irregular parameters were reported
same,liver function biochemical analysis from blood samples,humans,No irregular parameters were reported
same,pulse frequency and blood pressure,humans,not significantly altered
same,respiratory function,humans,not disturbed
same,symptoms of allergy,humans,no symptoms of allergy
same,tolerance to the compound upon the prescribed dosage,humans,showed tolerance
same,R (evaluation of the results by zone diameter),Campylobacter,E S
same,zone diameter,Campylobacter,35 mm
CC1(C)S[C@@H]2[C@H](NC(=O)[C@H](N)c3ccccc3)C(=O)N2[C@H]1C(=O)O [Ampicillin],R (evaluation of the results by zone diameter),[2],M S
same,zone diameter,[2],6 mm
same,R (evaluation of the results by zone diameter),E. coli,R (0mm - 4mm: resistant: R)
same,zone diameter,E. coli,2 mm
same,R (evaluation of the results by zone diameter),Streptococcus uberis,R (0mm - 4mm: resistant: R)
same,zone diameter,Streptococcus uberis,0 mm
same,R (evaluation of the results by zone diameter),Vibrio,R (0mm - 4mm: resistant: R)
same,zone diameter,Vibrio,4 mm
same,R (evaluation of the results by zone diameter),Shigella,M S
same,zone diameter,Shigella,6 mm
same,R (evaluation of the results by zone diameter),Escherichia coli 0157H5,M S
same,zone diameter,Escherichia coli 0157H5,7 mm
same,R (evaluation of the results by zone diameter),Streptococcus pyogenes,R (0mm - 4mm: resistant: R)
same,zone diameter,Streptococcus pyogenes,3 mm
same,R (evaluation of the results by zone diameter),Staphylococcus aureus,R (0mm - 4mm: resistant: R)
same,zone diameter,Staphylococcus aureus,0 mm
same,R (evaluation of the results by zone diameter),Yersinia,R (0mm - 4mm: resistant: R)
same,zone diameter,Yersinia,1 mm
same,R (evaluation of the results by zone diameter),Listeria monocytogenes,M S
same,zone diameter,Listeria monocytogenes,5 mm
same,R (evaluation of the results by zone diameter),Listeria,R (0mm - 4mm: resistant: R)
same,zone diameter,Listeria,2 mm
same,R (evaluation of the results by zone diameter),Salmonella,M S
same,zone diameter,Salmonella,8 mm
same,R (evaluation of the results by zone diameter),Streptococcus pneumonia,R (0mm - 4mm: resistant: R)
same,zone diameter,Streptococcus pneumonia,0 mm
same,R (evaluation of the results by zone diameter),Campylobacter,R (0mm - 4mm: resistant: R)
same,zone diameter,Campylobacter,0 mm
Cc1ccc(C(C)C)cc1O [Carvacrol],pKa,[8],10.4
same,LD50,rats [9],810 mg/kg

# From patent EP3991725B1, “NOVEL ENTERO-ANTISEPTIC FOR THE TREATMENT OF GASTROINTENSTINAL INFECTIONS IN HUMANS” (Ninkov, Dusan, priority 2020, dated 2022)
